Structures are written as SMILES.

This experiment has as its system HSC. The experiment is described as follows: Competitive repopulation assay, CD45.1/2 mouse model. To be noted: CD45.2 mice, one month in drinking water, ~2.0 mg/kg. The class given is in vivo. An excerpt:
FIGS. 2A-2G provide graphs and images showing N2N1 and VA support HSC/progenitors populations under pressure of differentiation and tissue culture stress in vitro and in vivo. General schema of CFU (A) and LTC-IC assays (B). […] Representative result of three NBM is shown. (D) The morphology of cells at the end of 1st part of LTC-IC assay is shown. The total number of cells at this step of experiment was always larger in the samples treated with experimental drugs. (E) Treatment of mice with N2N1 promotes maintenance of normal HSC in vivo. Competitive repopulation assay performed on CD45.2 mice treated with N2N1. Summary of four animals, three hematopoietic tissues. […] Representative result of three patients is shown.
The potential positive impact of identified pro-survival catalysts on viability and propagation of HSC was evaluated in competitive repopulation assay based on CD45.1/2 mouse model, a “gold standard” for HSC performance.

With `O=C1/C(=N/O)C=Cc2ccccc21` [N2N1, 1-naphthoquinone-2-monoxime], the “HSC number / repopulation capacity” value was “increased number of HSC or/and increased repopulation capacity”.

Values taken from patent US11723907B2, “Anti-aging compounds” (THE CLEVELAND CLINIC FOUNDATION, priority 2017, dated 2023).
